In US20040186081A1, “Naaladase inhibitors for treating opioid tolerance” (Guilford Pharmaceuticals Inc., priority 2003, published 2004):

Target: NAALADase (Homo sapiens, UniProt Q04609)
Experiment: In vitro inhibition of NAALADase activity
Assay type: biochemical
Conditions: not given

NAALADase, sequence (Q04609 whole entry): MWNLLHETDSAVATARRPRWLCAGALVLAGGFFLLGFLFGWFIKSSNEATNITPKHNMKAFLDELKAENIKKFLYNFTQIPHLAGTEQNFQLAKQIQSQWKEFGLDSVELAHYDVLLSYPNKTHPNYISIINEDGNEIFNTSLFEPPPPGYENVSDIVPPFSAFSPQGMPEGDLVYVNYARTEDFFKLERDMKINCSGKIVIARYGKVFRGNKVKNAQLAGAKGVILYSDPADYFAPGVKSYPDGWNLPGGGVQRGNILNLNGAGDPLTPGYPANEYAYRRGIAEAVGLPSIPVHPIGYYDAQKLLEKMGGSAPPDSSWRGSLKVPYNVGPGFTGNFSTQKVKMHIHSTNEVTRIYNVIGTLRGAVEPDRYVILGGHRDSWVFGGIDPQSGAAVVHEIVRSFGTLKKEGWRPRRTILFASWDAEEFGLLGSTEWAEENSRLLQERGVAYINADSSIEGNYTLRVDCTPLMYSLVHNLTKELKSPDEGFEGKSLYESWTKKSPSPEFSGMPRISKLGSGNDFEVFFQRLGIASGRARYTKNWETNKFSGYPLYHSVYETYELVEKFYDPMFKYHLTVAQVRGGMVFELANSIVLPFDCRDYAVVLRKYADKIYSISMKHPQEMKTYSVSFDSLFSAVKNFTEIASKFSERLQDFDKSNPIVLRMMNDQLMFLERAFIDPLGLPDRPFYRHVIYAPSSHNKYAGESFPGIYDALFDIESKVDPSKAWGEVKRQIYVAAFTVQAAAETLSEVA

SMILES	Ki
O=C(O)c1ccc(Sc2ccccc2C(=O)O)c(C(=O)O)c1 [4-[(2-carboxyphenyl)thio]-1,3-benzenedicarboxylic acid]	3980 nM
O=C(O)c1cc(OCCCS)cc(C(=O)O)c1 [5-(3-mercaptopropoxy)-1,3-benzenedicarboxylic acid]	3300 nM
O=C(O)c1ccc(C(=O)c2ccc(Oc3ccc(C(=O)O)c(C(=O)O)c3)cc2)c(C(=O)O)c1 [4-[4-(2,4-dicarboxybenzoyl)phenoxy]-1,2-benzenedicarboxylic acid]	1170 nM
O=C(O)c1ccc(CCS)c(C(=O)O)c1 [4-(2-mercaptoethyl)-1,3-benzenedicarboxylic acid]	116 nM
O=C(Cc1cc(C(=O)O)cc(C(=O)O)c1)NO [5-[2-(hydroxyamino)-2-oxoethyl]-1,3-benzenedicarboxylic acid]	12000 nM
O=C(O)c1ccc(S(=O)(=O)c2cc(C(=O)O)ccc2C(=O)O)cc1 [2-[(4-carboxyphenyl)sulfonyl]-1,4-benzenedicarboxylic acid]	2370 nM
O=C(O)c1cc(C(=O)O)cc(C(=O)NO)c1 [5-[(hydroxyamino)-carbonyl]-1,3-benzenedicarboxylic acid]	1000 nM
O=C(O)c1cc(CCS)cc(C(=O)O)c1 [5-(2-mercaptoethyl)-1,3-benzenedicarboxylic acid]	5100 nM

Same assay, conditions: read-out: IC50

SMILES	IC50
CCOC(=O)c1cc(C(=O)O)cc(C(=O)NO)c1 [5-Hydroxycarbamoyl-isophthalic acid monoethyl ester]	29000 nM
O=C(NO)c1ccc(Oc2ccc(F)cc2)c([N+](=O)[O-])c1 [4-(4-Fluoro-phenoxy)-N-hydroxy-3-nitro-benzamide]	≥ 100000 nM
O=C(O)c1ccc(Cl)c(CC(CCCS)C(=O)O)c1 (stereo not drawn) [5-carboxy-2-chloro-alpha-(3-mercaptopropyl)-benzenepropanoic acid]	2.09 nM
O=C(CCC(Cc1cccc(C(=O)O)c1)C(=O)O)NO (centres unmarked) [3-(2-Carboxy-4-hydroxycarbamoyl-butyl)-benzoic acid]	47.8 nM
O=C(O)Cc1ccc(OC(CCCS)C(=O)O)cc1 (centres unmarked) [4-(1-carboxy-4-mercaptobutoxy)-benzeneacetic acid]	82 nM
O=C(O)c1cc(CC(CCCS)C(=O)O)cc(Oc2ccccc2)c1 (stereo not drawn) [3-carboxy-alpha-(3-mercaptopropyl)-5-phenoxy-benzenepropanoic acid]	5 nM
O=C(O)c1cccc(CC(CCCSC(C(=O)NO)c2ccccc2)C(=O)O)c1 (centres unmarked) [3-[2-Carboxy-5-(hydroxycarbamoyl-phenyl-methylsulfanyl)-pentyl]-benzoic acid]	1120 nM
COc1cc(COc2cccc(CCS)c2C(=O)O)ccc1C(=O)O [2-[(4-carboxy-3-methoxyphenyl)methoxy]-6-(2-mercaptoethyl)-benzoic acid]	10.5 nM
O=C(O)c1ccccc1COc1cccc(CCS)c1C(=O)O [2-[(2-carboxyphenyl)methoxy]-6-(2-mercaptoethyl)-benzoic acid]	11.5 nM
O=C(CSCCCC(Cc1cc(C(=O)O)cc(-c2ccccc2)c1)C(=O)O)NO (centres unmarked) [5-(2-Carboxy-5-hydroxycarbamoylmethyl-sulfanylpentyl)-biphenyl-3-carboxylic acid]	1690 nM
CS(=O)(=O)c1ccc(CC(CCCS)C(=O)O)cc1 (stereo not drawn) [alpha-(3-mercaptopropyl)-4-(methylsulfonyl)-benzenepropanoic acid]	211 nM
O=C(CSCCCC(Cc1cccc(C(=O)O)c1)C(=O)O)NO (centres unmarked) [3-(2-Carboxy-5-hydroxycarbamoylmethyl-sulfanylpentyl)-benzoic acid]	384 nM
O=C(O)c1ccc(COc2cccc(CCS)c2C(=O)O)c(Br)c1 [2-[(2-bromo-4-carboxyphenyl)methoxy]-6-(2-mercaptoethyl)-benzoic acid]	2.65 nM
COC(=O)c1cc(CC(C(=O)O)C(=O)NO)cc(C(C)(C)C)c1 (centres unmarked) [3-tert-Butyl-5-(2-carboxy-2-hydroxycarbamoyl-ethyl)-benzoic acid methyl ester]	38600 nM
O=C(O)c1cccc(CC(CNO)C(=O)O)c1 (centres unmarked) [3-(2-Carboxy-3-hydroxyamino-propyl)-benzoic acid]	44000 nM
O=C(O)Cc1ccc(CC(CCCS)C(=O)O)cc1 (stereo not drawn) [4-(carboxymethyl)-alpha-(3-mercaptopropyl)-benzenepropanoic acid]	809 nM
O=C(O)c1cccc(CC(CCCS)C(=O)O)c1 (single isomer, unassigned; (-)) [(−)-3-carboxy-alpha-(3-mercaptopropyl)-benzenepropanoic acid]	33.3 nM
O=C(CSCCC(Cc1cccc(C(=O)O)c1)C(=O)O)NO (centres unmarked) [3-(2-Carboxy-4-hydroxycarbamoylmethyl-sulfanylbutyl)-benzoic acid]	4900 nM
O=C(O)c1ccc(COc2cccc(CCS)c2C(=O)O)cc1 [2-[(4-carboxyphenyl)methoxy]-6-(2-mercaptoethyl)-benzoic acid]	4 nM
O=C(CCCCSCCCC(Cc1cccc(C(=O)O)c1)C(=O)O)NO (centres unmarked) [3-[2-Carboxy-5-(4-hydroxycarbamoyl-butylsulfanyl)-pentyl]-benzoic acid]	7580 nM
CCC(SCCCC(Cc1cccc(C(=O)O)c1)C(=O)O)C(=O)NO (centres unmarked) [3-[2-Carboxy-5-(1-hydroxycarbamoyl-propylsulfanyl)-pentyl]-benzoic acid]	3290 nM
O=C(CCOc1cccc(-c2cccc(C(=O)O)c2)c1C(=O)O)NO [3-(2-1-Hydroxycarbamoyl-ethoxy)-biphenyl-2,3′-dicarboxylic acid]	14900 nM
O=C(NO)c1ccc(C(=O)c2ccccc2C(=O)NO)cc1	≥ 100000 nM
CC(=O)Nc1ccc(CC(CCCS)C(=O)O)cc1 (stereo not drawn) [4-(acetylamino)-alpha-(3-mercaptopropyl)-benzenepropanoic acid]	2200 nM
O=C(O)c1ccc(-c2ccccc2)c(CC(CCCS)C(=O)O)c1 (centres unmarked) [2-(2-carboxy-5-mercaptopentyl)-[1,1′-biphenyl]-4-carboxylic acid]	19 nM
CC(=O)Nc1cccc(OC(CCCS)C(=O)O)c1 (centres unmarked) [2-[3-(acetylamino)phenoxy]-5-mercapto-pentanoic acid]	27700 nM

SMILES	IC50
O=C(O)c1cccc(CC(CCCS)C(=O)O)c1Cl (stereo not drawn) [3-carboxy-2-chloro-alpha-(3-mercaptopropyl)-benzenepropanoic acid]	1200 nM
CC(S)CCC(Cc1cccc(C(=O)O)c1)C(=O)O (stereo not drawn) [3-carboxy-alpha-(3-mercaptobutyl)-benzenepropanoic acid]	30 nM
O=C(O)c1ccccc1Oc1ccc(CC(CCCS)C(=O)O)cc1 (stereo not drawn) [4-(2-carboxyphenoxy)-alpha-(3-mercaptopropyl)-benzenepropanoic acid]	3590 nM
CC(C)(C)c1cc(CC(CC(=O)NO)C(=O)O)cc(C(=O)O)c1 (centres unmarked) [3-tert-Butyl-5-(2-carboxy-3-hydroxycarbamoyl-propyl)-benzoic acid]	296 nM
O=C(CSCCCC(Cc1cccc(-c2cccc(C(=O)O)c2)c1)C(=O)O)NO (centres unmarked) [3′-(2-Carboxy-5-hydroxycarbamoylmethylsulfanyl-pentyl)-biphenyl-3-carboxylic acid]	23500 nM
O=C(CSCCCC(Cc1cc(Br)cc(C(=O)O)c1)C(=O)O)NO (centres unmarked) [3-Bromo-5-(2-carboxy-5-hydroxycarbamoyl-methylsulfanylpentyl)-benzoic acid]	2460 nM
O=C(CCSCCCC(Cc1cccc(C(=O)O)c1)C(=O)O)NO (centres unmarked) [3-[2-Carboxy-5-(2-hydroxycarbamoyl-ethylsulfanyl)-pentyl]-benzoic acid]	113 nM
O=C(O)C(CCCS)Sc1ccccc1 (centres unmarked) [5-mercapto-2-(phenylthio)-pentanoic acid]	297 nM
O=C(O)c1ccc(CC(CCCS)C(=O)O)cc1 (stereo not drawn) [4-carboxy-alpha-(3-mercaptopropyl)-benzenepropanoic acid]	59 nM
O=C(O)c1cccc(SC(CCCS)C(=O)O)c1 (centres unmarked) [3-[1-carboxy-4-mercaptobutyl)thio]-benzoic acid]	24 nM
COc1cc(OC)cc(OC(CCCS)C(=O)O)c1 (centres unmarked) [2-(3,5-dimethoxyphenoxy)-5-mercapto-pentanoic acid]	16100 nM
O=C(O)c1cccc(CC(CCCS)C(=O)O)c1-c1ccccc1 (centres unmarked) [6-(2-carboxy-5-mercaptopentyl)-[1,1′-biphenyl]-2-carboxylic acid]	70 nM
O=C(O)c1cccc(COc2ccc(CCS)c(C(=O)O)c2)c1 [5-[(3-carboxyphenyl)methoxy]-2-(2-mercaptoethyl)-benzoic acid]	84.5 nM
CC(C)(C)c1cc(CC(CCC(=O)NO)C(=O)O)cc(C(=O)O)c1 (centres unmarked) [3-tert-Butyl-5-(2-carboxy-4-hydroxycarbamoyl-butyl)-benzoic acid]	0.2 nM
O=C(CSCCCC(Cc1cc(Oc2ccccc2)cc(C(=O)O)c1)C(=O)O)NO (centres unmarked) [3-(2-Carboxy-5-hydroxycarbamoylmethyl-sulfanylpentyl)-5-phenoxy-benzoic acid]	3250 nM
O=C(O)c1c(CCS)cccc1OCCc1ccccc1 [2-(2-mercaptoethyl)-6-(2-phenylethoxy)-benzoic acid]	266 nM
O=C(O)c1cccc(CS)c1 [3-(mercaptomethyl)-benzoic acid]	3780 nM
O=C(O)c1ccccc1CCS [2-(2-mercaptoethyl)-benzoic acid]	613 nM
O=C(O)C(CCCS)Cc1ccc2ccccc2c1 (stereo not drawn) [alpha-(3-mercaptopropyl)-2-naphthalenepropanoic acid]	1130 nM
O=C(CSCCCC(Cc1cccc(C(=O)O)c1)C(=O)O)NO (centres unmarked) [3-(2-Carboxy-5-hydroxycarbamoylmethyl-sulfanyl-pentyl)-benzoic acid]	394 nM
O=C(O)C(CCCS)Cc1cccc(Oc2ccccc2)c1 (stereo not drawn) [alpha-(3-mercaptopropyl)-3-phenoxy-benzenepropanoic acid]	308 nM
O=C(CCCSCC(Cc1cccc(C(=O)O)c1)C(=O)O)NO (centres unmarked) [3-[2-Carboxy-3-(3-hydroxycarbamoyl-propylsulfanyl)-propyl]-benzoic acid]	6050 nM
CCC(SCCC(Cc1cc(C(=O)O)cc(C(C)(C)C)c1)C(=O)O)C(=O)NO (centres unmarked) [3-tert-Butyl-5-[2-carboxy-4-(1-hydroxycarbamoyl-propylsulfanyl)-butyl]-benzoic acid]	16000 nM
O=C(O)c1cccc(-c2cccc(CC(CCCS)C(=O)O)c2)c1 (centres unmarked) [3′-(2-carboxy-5-mercaptopentyl)-[1,1′-biphenyl]-3-carboxylic acid]	1.83 nM
O=C(O)c1cc(CC(CCCS)C(=O)O)cc(C(=O)O)c1 (centres unmarked) [5-(2-carboxy-5-mercaptopentyl)-1,3-benzenedicarboxylic acid]	2.55 nM
